In publication PMC11892739, “Site-specific molecular glues for the 14-3-3/Tau pS214 protein–protein interaction via reversible covalent imine tethering” (RSC Medicinal Chemistry, 2025):

Biological target: T1, 14-3-3ζ/Tau pS2 peptide interaction (Homo sapiens, UniProt P63104)
T1 construct: made in house; host or cells: NiCo21 (DE3) E. coli
T1 sequence (P63104 1-245): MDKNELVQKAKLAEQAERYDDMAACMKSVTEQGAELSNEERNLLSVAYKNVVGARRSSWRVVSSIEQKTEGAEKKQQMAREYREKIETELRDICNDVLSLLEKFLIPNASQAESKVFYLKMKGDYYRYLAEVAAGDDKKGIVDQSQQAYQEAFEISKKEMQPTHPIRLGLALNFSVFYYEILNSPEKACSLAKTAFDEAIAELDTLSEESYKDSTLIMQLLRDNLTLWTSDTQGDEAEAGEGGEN
Experiment: Fluorescence anisotropy 14-3-3ζ titration in the presence of 250 μM compound and Tau pS2 peptide
Format: binding
Settings: 250 μM compound; apparent KD compared to internal DMSO reference
Description: On the other hand, the PPI stabilizing potency of series 1 compounds was highly dependent on the position and chemical property of the substituent. […] The compound screen for these compounds was further complemented by 14-3-3ζ titration assays in the presence of a constant concentration of compound (250 μM) and Tau pS2 peptide (10 nM) (Fig. 3c, ESI ^† Fig. S6).
This statement is strengthened by the diminished stabilizing activity when shifting the more polar chloro substituent from the para (14) to the ortho (5) to the meta position (8), respectively. […]
chromatography (HisTrap high performance cartridges, Cytiva). Typically two 5 mL columns were used for a 2 L culture in which the lysate was loaded on the column, washed with 10 CV wash buffer (50 mM Hepes, pH 8.0, 300 mM NaCl, 25 mM imidazole, 2 mM βME), and eluted with several fractions (2-4 CV) of elution buffer (50 mM Hepes, pH 8.0, 300 mM NaCl, 250 mM imidazole, 2 mM βME). Fractions containing the 14-3-3 protein were combined and dialyzed into 25 mM HEPES pH 8.0, 200 mM NaCl, 10 mM MgCl2, 2 mM βME, followed by dialysis into 25 mM HEPES, 100 mM NaCl, 10 mM MgCl2, 500 μM TCEP (adjusted to pH 8.0). Dialyzed protein was concentrated to ∼40 mg/mL, analyzed by Q -Tof LC/MS, and aliquots were flash -frozen for storage at −80 °C. For 14 -3-3σ∆c, 1 mg TEV per 100 mg purified protein was added to the dialysis to remove the purification tag. The cleaved sample was then again loaded on a 10 mL Ni-NTA column to separate the cleaved product from the expression tag and residual uncleaved protein. The flowthrough was loade d on a Superdex 75 pg 16/60 size exclusion column (GE Life Sciences) using 25 mM HEPES, 100 mM NaCl, 10 mM MgCl2, 500 μM TCEP (adjusted to pH = 8.0) as running buffer. Fractions containing the 14 -3-3 protein were pooled and concentrated to ∼60 mg/mL, analyzed Q -Tof LC/MS, and aliquots were flash -frozen for storage at −80°C.
Fluorescence Anisotropy – compound titration
Compound titration assays were performed by titrating compounds (in 1% DMSO, starting at 500 μM) in a 2-fold dilution series to preformed complex of fluorescein -labeled Tau pS2 (10 nM) and 14 -3-3ζ (100 nM) (which represents approximately 20% bound Tau pS2 peptide to 14 -3-3ζ to allow further complex formation by addition of fragments 1) in FA buffer (10 mM HEPES pH 7.4, 150 mM NaCl, 50 µM TCEP, 0.1% (v/v) Tween20, 0.1% (w/v) BSA). Dilution series were made in polystyrene low -volume 384 -well plates (Corning #4514, Black Round Bottom). Measurements were performed directly after plate preparation, using a Tecan SPARK plate reader at room temperature ( λex: 485±20 nm; λem: 535±25 nm; mirror: automatic; flashes: 30; settle time: 1 ms; gain: optimal; Z -position: calculated from well). Wells containing only fluorescein labelled peptide were used to set as G -factor calibrated from these wells. All data were analyzed using GraphPad Prism (10.0.1) and fitted with a four -parameter logistic model (4PL) to determine binding affinities (dissociation constant, KD). All data shown is background corrected for the signal without 14 -3-3ζ and the mean and standard deviation of technical duplicate is plotted, assay performed in a scientific duplicate for hit compounds.
Fluorescence Anisotropy – 14-3-3 titrations in the presence of compound To characterize the affinity of the Tau peptides for 14-3-3 in the presence of compound, 14-3-3ζ or γ was titrated in a 2-fold dilution series starting at 400 (for the 14-3-3ζ titrations to Tau pS2) or 800 (for the 14-3-3γ titrations to Tau pS214 or pS324) µM. 14-3-3 was added to 10 nM of fluorescein-labeled peptide (Tau pS2, Tau pS214 or Tau pS324) in the presence of 250 µM compound (1% DMSO). The assays were performed in a similar way as described above. Data shown is the average and standard deviation of a technical duplicate, top plateau corrected where needed, assay performed in a scientific duplicate.
Fluorescence Anisotropy – peptide screen […]

SF250μM (stabilization factor) | Compound
29 | Cc1ccc(-c2nccn2-c2ccc(C=O)c(Br)c2)cc1 [Compound 11]
33 | O=Cc1ccc(-n2ccnc2-c2ccc(F)cc2)cc1Br [Compound 13]
8.9 | O=Cc1ccc(-n2ccnc2-c2ccc(Cl)cc2)cc1Br [Compound 14]
3.1 | O=Cc1ccc(-n2ccnc2-c2ccc(I)cc2)cc1Br [Compound 15]

The next lines start with the compound.

Compound | SF250μM (stabilization factor)
O=Cc1ccc(-n2ccnc2-c2ccccc2)cc1Br [Compound 1] | 23
Cc1cccc(-c2nccn2-c2ccc(C=O)c(Br)c2)c1 [Compound 6] | 10
CCc1ccc(-c2nccn2-c2ccc(C=O)c(Br)c2)cc1 [Compound 18] | 37
O=Cc1ccc(-n2ccnc2-c2ccc(C(F)(F)F)cc2)cc1Br [Compound 20] | 13
O=Cc1ccc(-n2ccnc2-c2ccc(OC(F)(F)F)cc2)cc1Br [Compound 21] | 11
N#Cc1ccc(-c2nccn2-c2ccc(C=O)c(Br)c2)cc1 [Compound 22] | 34

Same assay, conditions: screening hits

Compound | stabilization of the 14-3-3ζ/Tau pS2 peptide complex
O=Cc1ccc(-n2ccnc2-c2ccccc2)cc1Br [Compound 1] | 23 fold
